Legend:
[1] = tested on: rabbit serum obtained by immunizing a rabbit with the SARS-CoV strain Frankfurt 1; format: binding; parameters: Binding of a rabbit serum to linear peptides / Binding of a rabbit serum to looped peptides / Rabbit serum linear peptides / Rabbit serum looped peptides / Binding of a rabbit serum to linear peptides of protein N of SARS-CoV Urbani (Rabbit serum linear peptides) / Binding of a rabbit serum to looped/cyclic peptides of protein N of SARS-CoV Urbani (Rabbit serum looped peptides): unit not given here
[2] = tested on: antibodies in sera from SARS patients (sera 1a, 1b, 2, 6, 37, 62, London, SARS-yellow, SARS-green); format: binding, human; parameters: Binding of serum 6 to linear peptides of protein X1 of SARS-CoV Urbani / Binding of serum 37 to linear peptides of protein X1 of SARS-CoV Urbani / Binding of serum 6 to looped/cyclic peptide (PEPSCAN-ELISA) / Binding of serum 37 to looped/cyclic peptide (PEPSCAN-ELISA) / Binding of serum 37 to looped/cyclic peptides of protein X1 of SARS-CoV Urbani / Binding of serum 6 to linear peptides of protein X2 / Binding of serum 37 to linear peptides of protein X2 / Binding of serum 37 to looped/cyclic peptides of protein X2 of SARS-CoV Urbani / Binding of serum 6 to linear peptides of protein M of SARS-CoV Urbani / Binding of serum 37 to linear peptides of protein M of SARS-CoV Urbani / Binding of serum 6 to looped/cyclic peptides of protein M of SARS-CoV Urbani / Binding of serum 37 to looped/cyclic peptides of protein M of SARS-CoV Urbani / Binding of serum 6 to linear peptides of protein X3 of SARS-CoV Urbani / Binding of serum 37 to linear peptides of protein X3 of SARS-CoV Urbani / Binding of serum 37 to looped/cyclic peptides of protein X3 of SARS-CoV Urbani / Binding of serum 6 to linear peptides of protein X4 of SARS-CoV Urbani / Binding of serum 37 to linear peptides of protein X4 of SARS-CoV Urbani / Binding of serum 37 to looped/cyclic peptides of protein X4 of SARS-CoV Urbani / Binding of serum 6 to linear peptides of protein X5 of SARS-CoV Urbani / Binding of serum 37 to linear peptides of protein X5 of SARS-CoV Urbani / Binding of serum 37 to looped/cyclic peptides of protein X5 of SARS-CoV Urbani / Binding of serum 6 to linear peptides of protein N of SARS-CoV Urbani / Binding of serum 37 to linear peptides of protein N of SARS-CoV Urbani / Binding of serum 6 to linear peptide (PEPSCAN-ELISA) / Binding of serum 1a to looped/cyclic peptides of protein N of SARS-CoV Urbani / Binding of serum 1b to looped/cyclic peptides of protein N of SARS-CoV Urbani / Binding of serum 2 to looped/cyclic peptides of protein N of SARS-CoV Urbani / Binding of serum 6 to looped/cyclic peptides of protein N of SARS-CoV Urbani / Binding of serum 37 to looped/cyclic peptides of protein N of SARS-CoV Urbani / Binding of serum 62 to looped/cyclic peptides of protein N of SARS-CoV Urbani / Binding of serum London to looped/cyclic peptides of protein N of SARS-CoV Urbani / Binding of serum SARS-green to looped/cyclic peptides of protein N of SARS-CoV Urbani: unit not given here
[3] = tested on: control sera (pooled serum of ten healthy LUMC hospital workers; commercial negative donor pooled serum from the Dutch bloodbank); format: binding, human; parameters: Binding of Control serum LUMC to linear peptides / Binding of Control serum Blood-bank to linear peptides / Binding of Control serum LUMC to looped peptides / Binding of Control Serum Blood-Bank to Looped peptides / Binding of Control serum LUMC to linear peptides of the protein M of SARS-CoV Urbani / Binding of Control serum Blood-bank to linear peptides of the protein M of SARS-CoV Urbani / Binding of Control serum LUMC to looped peptides of the protein M of SARS-CoV Urbani / Binding of Control Serum Blood-Bank to Looped peptides of the protein M of SARS-CoV Urbani: unit not given here

NSPFHPLADNKFALT
Rabbit serum linear peptides [1]: 0.5 | Rabbit serum looped peptides [1]: 0.7

AGTHITMTTVYHITV
Binding of a rabbit serum to linear peptides [1]: 0.7 | Binding of a rabbit serum to looped peptides [1]: 0.5

TLFAGTHITMTTVYH
Binding of a rabbit serum to linear peptides [1]: 0.7 | Binding of a rabbit serum to looped peptides [1]: 0.5

KQLLEQWNLVIGFLF
Binding of serum 1a to linear peptides of protein M of SARS-CoV Urbani [2]: 0.7 | Binding of serum 1a to looped/cyclic peptides of protein M of SARS-CoV Urbani [2]: 0.7 | Binding of serum 1b to linear peptides of protein M of SARS-CoV Urbani [2]: 0.6 | Binding of serum 1b to looped/cyclic peptides of protein M of SARS-CoV Urbani [2]: 0.6 | Binding of serum 2 to linear peptides of protein M of SARS-CoV Urbani [2]: 0.4 | Binding of serum 2 to looped/cyclic peptides of protein M of SARS-CoV Urbani [2]: 0.5 | Binding of serum 6 to linear peptides of protein M of SARS-CoV Urbani [2]: 0.3 | Binding of serum 6 to looped/cyclic peptides of protein M of SARS-CoV Urbani [2]: 1.0 | Binding of serum 37 to linear peptides of protein M of SARS-CoV Urbani [2]: 0.3 | Binding of serum 37 to looped/cyclic peptides of protein M of SARS-CoV Urbani [2]: 0.5 | Binding of serum 62 to linear peptides of protein M of SARS-CoV Urbani [2]: 0.4 | Binding of serum 62 to looped/cyclic peptides of protein M of SARS-CoV Urbani [2]: 0.7 | Binding of serum London to linear peptides of protein M of SARS-CoV Urbani [2]: 0.3 | Binding of serum London to looped/cyclic peptides of protein M of SARS-CoV Urbani [2]: 0.3 | Binding of serum SARS-green to linear peptides of protein M of SARS-CoV Urbani [2]: 0.4 | Binding of serum SARS-green to looped/cyclic peptides of protein M of SARS-CoV Urbani [2]: 0.4 | Binding of serum SARS-yellow to linear peptides of protein M of SARS-CoV Urbani [2]: 0.2 | Binding of serum SARS-yellow to looped/cyclic peptides of protein M of SARS-CoV Urbani [2]: 0.8 | Binding of Control Serum Blood-Bank to Looped peptides of the protein M of SARS-CoV Urbani [3]: 0.6 | Binding of Control serum Blood-bank to linear peptides of the protein M of SARS-CoV Urbani [3]: 0.5 | Binding of Control serum LUMC to linear peptides of the protein M of SARS-CoV Urbani [3]: 0.6 | Binding of Control serum LUMC to looped peptides of the protein M of SARS-CoV Urbani [3]: 0.7

TITVEELKQLLEQWN
Recognition of the peptide by the rabbit serum [1]: recognized

TTLFAGTHITMTTVY
Binding of a rabbit serum to linear peptides [1]: 0.6 | Binding of a rabbit serum to looped peptides [1]: 0.3

IARCWYLHEGHQTAA
Rabbit serum linear peptides [1]: 0.7 | Rabbit serum looped peptides [1]: 0.3

MVQTCTPNVTINCQD
Rabbit serum linear peptides [1]: 0.5 | Rabbit serum looped peptides [1]: 0.2

ASTVHATATIPLQAS
Binding of a rabbit serum to linear peptides [1]: 0.9 | Binding of a rabbit serum to looped peptides [1]: 0.6

YLHEGHQTAAFRDVL
Rabbit serum linear peptides [1]: 0.2 | Rabbit serum looped peptides [1]: 0.6

GNSPFHPLADNKFAL
Rabbit serum linear peptides [1]: 0.5 | Rabbit serum looped peptides [1]: 1.0

MMPTTLFAGTHITMT
Binding of a rabbit serum to linear peptides [1]: 0.6 | Binding of a rabbit serum to looped peptides [1]: 0.6

YEGNSPFHPLADNKF
Rabbit serum linear peptides [1]: 0.6 | Rabbit serum looped peptides [1]: 0.5

IIRGHLRMAGHPLGR
Rabbit serum linear peptides [1]: 0.6 | Rabbit serum looped peptides [1]: 2.0

MPTTLFAGTHITMTT
Binding of a rabbit serum to linear peptides [1]: 0.7 | Binding of a rabbit serum to looped peptides [1]: 0.3

ASPASTVHATATIPL
Binding of a rabbit serum to linear peptides [1]: 1.4 | Binding of a rabbit serum to looped peptides [1]: 0.5

VEELKQLLEQWNLVI
Recognition of the peptide by the rabbit serum [1]: recognized

GFQFICNLLLLFVTI
Binding of serum 1a to linear peptides of protein X1 of SARS-CoV Urbani [2]: 0.6 | Binding of serum 1a to looped/cyclic peptide (PEPSCAN-ELISA) [2]: 0.5 | Binding of serum 1b to linear peptides of protein X1 of SARS-CoV Urbani [2]: 0.5 | Binding of serum 1b to looped/cyclic peptide (PEPSCAN-ELISA) [2]: 0.3 | Binding of serum 2 to linear peptides of protein X1 of SARS-CoV Urbani [2]: 0.5 | Binding of serum 2 to looped/cyclic peptide (PEPSCAN-ELISA) [2]: 0.3 | Binding of serum 6 to linear peptides of protein X1 of SARS-CoV Urbani [2]: 0.4 | Binding of serum 6 to looped/cyclic peptide (PEPSCAN-ELISA) [2]: 0.3 | Binding of serum 37 to linear peptides of protein X1 of SARS-CoV Urbani [2]: 0.5 | Binding of serum 37 to looped/cyclic peptide (PEPSCAN-ELISA) [2]: 0.5 | Binding of serum 62 to linear peptides of protein X1 of SARS-CoV Urbani [2]: 0.6 | Binding of serum 62 to looped/cyclic peptide (PEPSCAN-ELISA) [2]: 0.5 | Binding of serum London to linear peptides of protein X1 of SARS-CoV Urbani [2]: 0.3 | Binding of serum London to looped/cyclic peptide (PEPSCAN-ELISA) [2]: 0.2 | Binding of serum SARS-green to linear peptides of protein X1 of SARS-CoV Urbani [2]: 0.2 | Binding of serum SARS-green to looped/cyclic peptide (PEPSCAN-ELISA) [2]: 0.2 | Binding of serum SARS-yellow to linear peptides of protein X1 of SARS-CoV Urbani [2]: 0.5 | Binding of serum SARS-yellow to looped/cyclic peptide (PEPSCAN-ELISA) [2]: 0.4 | Binding of Control Serum Blood-Bank to Looped peptides [3]: 0.4 | Binding of Control serum Blood-bank to linear peptides [3]: 0.4 | Binding of Control serum LUMC to linear peptides [3]: 0.5 | Binding of Control serum LUMC to looped peptides [3]: 0.5
